Reference: the Kinase Knowledgebase extract (Sharma et al. 2016)

Legend:
EGFR (human) [1] = target: EGFR (human) (UniProt P00533); settings: mcf-7
EGFR (human) [2] = target: EGFR (human) (UniProt P00533); settings: sn12c
EGFR (human) [3] = target: EGFR (human) (UniProt P00533); settings: hct-116
EGFR (human) [4] = target: EGFR (human) (UniProt P00533); settings: sf-539
EGFR (mouse) = EGFR (mouse) (UniProt P00533); settings: baf3
EGFR (human) [5] = target: EGFR (human) (UniProt P00533); settings: du-145
EGFR (human) [6] = target: EGFR (human) (UniProt P00533); settings: uacc-62
EGFR (human) [7] = target: EGFR (human) (UniProt P00533); settings: ovcar-3
EGFR (human) [8] = target: EGFR (human) (UniProt P00533); settings: hop-62
EGFR (human) [9] = target: EGFR (human) (UniProt P00533); settings: ccrf-cem
EGFR (human) [10] = target: EGFR (human) (UniProt P00533); settings: mda-mb-435

Sequence of EGFR (human) (P00533 whole entry, looked up): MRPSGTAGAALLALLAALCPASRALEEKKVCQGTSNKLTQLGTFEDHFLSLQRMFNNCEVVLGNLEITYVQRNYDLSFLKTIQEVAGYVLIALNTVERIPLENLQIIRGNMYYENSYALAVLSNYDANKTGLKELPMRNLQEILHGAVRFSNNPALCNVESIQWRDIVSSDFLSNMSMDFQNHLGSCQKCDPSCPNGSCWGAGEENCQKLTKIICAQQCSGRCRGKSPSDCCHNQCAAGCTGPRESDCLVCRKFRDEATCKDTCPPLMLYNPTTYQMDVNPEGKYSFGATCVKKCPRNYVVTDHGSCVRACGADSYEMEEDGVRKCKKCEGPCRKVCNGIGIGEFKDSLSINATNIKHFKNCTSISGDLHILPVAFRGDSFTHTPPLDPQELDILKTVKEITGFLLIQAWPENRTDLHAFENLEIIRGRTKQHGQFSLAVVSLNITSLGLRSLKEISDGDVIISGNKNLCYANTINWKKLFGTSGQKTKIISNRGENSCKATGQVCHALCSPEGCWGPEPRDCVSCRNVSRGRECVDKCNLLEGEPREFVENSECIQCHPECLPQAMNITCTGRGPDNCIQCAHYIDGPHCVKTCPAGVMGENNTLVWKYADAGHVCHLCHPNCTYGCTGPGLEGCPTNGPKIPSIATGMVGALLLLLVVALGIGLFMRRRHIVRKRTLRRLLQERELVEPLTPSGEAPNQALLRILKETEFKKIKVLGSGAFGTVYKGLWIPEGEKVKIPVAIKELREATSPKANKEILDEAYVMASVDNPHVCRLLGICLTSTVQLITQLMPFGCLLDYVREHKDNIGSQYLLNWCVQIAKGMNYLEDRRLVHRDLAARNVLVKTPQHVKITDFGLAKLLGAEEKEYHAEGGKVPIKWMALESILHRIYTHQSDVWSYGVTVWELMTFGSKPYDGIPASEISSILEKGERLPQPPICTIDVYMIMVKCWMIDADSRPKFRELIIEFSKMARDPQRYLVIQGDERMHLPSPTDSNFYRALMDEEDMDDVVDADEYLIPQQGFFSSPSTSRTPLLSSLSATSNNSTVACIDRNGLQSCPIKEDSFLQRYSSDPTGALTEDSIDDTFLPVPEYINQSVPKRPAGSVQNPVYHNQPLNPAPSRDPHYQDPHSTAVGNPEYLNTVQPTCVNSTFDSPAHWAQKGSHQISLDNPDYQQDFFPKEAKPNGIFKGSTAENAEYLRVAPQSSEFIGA

| IC50 (EGFR (human) [1]) | IC50 (EGFR (human) [2]) | IC50 (EGFR (human) [3]) | IC50 (EGFR (human) [4]) | IC50 (EGFR (mouse)) | IC50 (EGFR (human) [5]) | IC50 (EGFR (human) [6]) | IC50 (EGFR (human) [7]) | IC50 (EGFR (human) [8]) | IC50 (EGFR (human) [9]) | IC50 (EGFR (human) [10]) | SMILES |
| --- | --- | --- | --- | --- | --- | --- | --- | --- | --- | --- | --- |
| > 50 µM |  |  |  |  |  |  |  |  |  |  | CC(C)CCCC(C)[C@H]1CCC2C3CCC4C[C@@H](NC(=O)c5cc(NCc6cc(O)ccc6O)ccc5O)CC[C@]4(C)C3CC[C@@]21C (stereo partly drawn) |
|  | 7.4 µM | 7.4 µM | 8.5 µM | > 200 µM | 14 µM | 9.4 µM | 2.7 µM | 13 µM | 0.59 µM |  | O=C(NCCc1ccccc1)c1ccc(NCc2cc(O)ccc2O)cc1 |
|  | 18 µM | 18 µM | 17 µM |  | 16 µM | 14 µM | 7.7 µM | 20 µM | 2.7 µM | 19 µM | O=C(NCCc1ccccc1)c1cc(NCc2cc(O)ccc2O)ccc1O |
|  | 13 µM | 16 µM | 15 µM |  | 17 µM | 13 µM | 2.8 µM | 3.8 µM | 4.4 µM | 15 µM | O=C(NCCc1ccccc1)c1cccc(NCc2cc(O)ccc2O)c1 |
|  | 12 µM |  | 21 µM |  | 16 µM | 15 µM | 21 µM | 23 µM |  | 30 µM | O=C(NCc1ccccc1)c1cc(NCc2cc(O)ccc2O)ccc1O |
|  | 22 µM | 20 µM | 19 µM | > 50 µM | 17 µM | 17 µM | 87 µM |  | 1.8 µM | 13 µM | O=C(NCCN1CCOCC1)c1cc(NCc2cc(O)ccc2O)ccc1O |
|  | 9.8 µM | 15 µM | 8.4 µM |  | 16 µM |  | 5.9 µM | 17 µM | 1.6 µM | 20 µM | O=C(NCCc1ccc(Cl)cc1)c1cc(NCc2cc(O)ccc2O)ccc1O |
|  | 72 µM | 23 µM | 16 µM | > 100 µM | 21 µM |  | 5.5 µM | 12 µM | 3.2 µM | 16 µM | COc1ccc(CCNC(=O)c2cc(NCc3cc(O)ccc3O)ccc2O)cc1 |
|  | 7.7 µM | 9.2 µM | 9.2 µM |  | 18 µM | 7.8 µM | 11 µM |  | 0.29 µM | 13 µM | O=C(NCCc1ccc(F)cc1)c1cc(NCc2cc(O)ccc2O)ccc1O |
|  | 2.6 µM | 2.1 µM | 20 µM |  | 11 µM | 3.2 µM | 1.9 µM | 3.8 µM | 0.34 µM | 3.2 µM | CCCCCCCCCCCCNC(=O)c1cc(NCc2cc(O)ccc2O)ccc1O |
|  |  | 7.6 µM | 15.8 µM |  | 16 µM | 8.6 µM |  | 18 µM |  | 10 µM | O=C(NCCc1ccc(Br)cc1)c1cc(NCc2cc(O)ccc2O)ccc1O |
|  | 3.2 µM | 6.4 µM | 3.4 µM |  | 13 µM | 7.9 µM |  | 16 µM | 0.83 µM |  | O=C(NCCCc1ccccc1)c1ccc(NCc2cc(O)ccc2O)cc1 |
|  | 19 µM | 17 µM | 29 µM |  | 17 µM | 17 µM | 17 µM | 20 µM | 1 µM | 13 µM | O=C(NCCc1ccccn1)c1cc(NCc2cc(O)ccc2O)ccc1O |
|  | 9.7 µM | 10 µM | 9.7 µM | > 100 µM | 15 µM | 12 µM | 6.8 µM | 20 µM | 2.7 µM | 12 µM | O=C(NCc1ccccc1)c1ccc(NCc2cc(O)ccc2O)cc1 |
|  | 6.1 µM | 17 µM | 2.3 µM |  | 15 µM | 12 µM | 4 µM | 19 µM | 0.56 µM | 15 µM | CCCCCCNC(=O)c1cc(NCc2cc(O)ccc2O)ccc1O |
|  | 18 µM | 16 µM | 2.7 µM |  | 17 µM | 14 µM |  | 17 µM | 1.4 µM | 9.2 µM | O=C(NC1CCc2ccccc2C1)c1cc(NCc2cc(O)ccc2O)ccc1O (stereo not drawn) |
|  | 15 µM | 24 µM | 16 µM |  | 8.4 µM | 14 µM | 6.5 µM | 22 µM | 2.4 µM | 18 µM | O=C(NCCCc1ccccc1)c1cc(NCc2cc(O)ccc2O)ccc1O |
|  | 19 µM |  | 2.5 µM |  | 17 µM | 18 µM | 62 µM | 2.5 µM |  | 23 µM | O=C(NCCc1ccc(O)cc1)c1cc(NCc2cc(O)ccc2O)ccc1O |
